Laboratory results from patent US10555951B2, “Targeted treatment of leiomyosarcoma” (Eli Lilly and Company, priority 2015, dated 2020).
Values joined by “and” are separate entries in the source; they are usually repeats but may differ in a detail not shown here. Equal entries are not always repeated.

Key:
leiomyosarcoma tumor [1] = assay: Clinical evaluation Part B: leiomyosarcoma patients, RECIST, tumor size, PET/CT SUVmax (Table 3); assay type: in vivo, human
Source text: PET/CT imaging of cancer with combined positron emission tomography (PET) and X-ray computerized tomography (CT) scanners has become a standard component of diagnosis and staging in oncology. The use of the radiolabeled tracer 2-deoxy-2-[^18F]fluoro-D-glucose (FDG) is used for the majority of all PET/CT imaging procedures. One of the advantages of PET/CT imaging is its ability to detect, very early during treatment, significant changes in glucose metabolism or even complete shutoff of the neoplastic cell metabolism as a surrogate of tumor chemosensitivity assessment. In addition to cancer detection and staging, PET/CT imaging is becoming increasingly important as a quantitative monitor of individual response to therapy and an evaluation tool for new drug therapies. […] RECIST criteria, where response of tumors to therapy has traditionally assessed by measurement of changes in size/dimension of the tumors in CT images may not evidence early response to the therapy. Changes in size of tumors as a result of therapy may take a long period of time to develop. The most widely used parameter is the standardized uptake value (SUV) is defined as the maximal SUV value (SUVMAX) in the region of interest and reduction in SUVMAX is generally considered the most reliable indicator of the metabolic activity shutdown.
(§1) This study is a multicenter, nonrandomized, open-label, dose-escalation study followed by cohort expansion of oral dosed 4,4,4-trifluoro-N-[(1S)-2-[[(7S)-5-(2-hydroxyethyl)-6-oxo-7H-pyrido[2,3-d][3]benzazepin-7-yl]amino]-1-methyl-2-oxo-ethyl]butanamide hydrate in outpatients with advanced or metastatic cancer.
(§2) 4,4,4-Trifluoro-N-[(1S)-2-[[(7S)-5-(2-hydroxyethyl)-6-oxo-7H-pyrido[2,3-d][3]benzazepin-7-yl]amino]-1-methyl-2-oxo-ethyl]butanamide hydrate, dose range 2.5 to 100 mg, given orally as capsules 3 times per week during a 28-day cycle.
(§3) 4,4,4-Trifluoro-N-[(1S)-2-[[(7S)-5-(2-hydroxyethyl)-6-oxo-7H-pyrido[2,3-d][3]benzazepin-7-yl]amino]-1-methyl-2-oxo-ethyl]butanamide hydrate will be administered orally TIW during both the dose-escalation phase (Part A) and the dose-confirmation phase (Part B).
(§4) Efficacy: Depending on the histology, efficacy will be assessed using Response Evaluation Criteria in Solid Tumors (RECIST) v1.1 for solid tumors, the Revised Criteria for Malignant Lymphoma, the Guidelines from the National Cancer Institute Working Group for CLL, or the Response Assessment in Neuro-Oncology (RANO) criteria for glioblastoma. Each patient will be assessed by 1 or more of the following radiologic tests for tumor measurement: X-ray computerized tomography (CT) scan; magnetic resonance imaging (MRI); chest X-ray; PET scan; PET/CT imaging Standardized Uptake Values (SUVMAX).
Data on 19 additional patients having leiomyosarcoma administered 4,4,4-trifluoro-N-[(1S)-2-[[(7S)-5-(2-hydroxyethyl)-6-oxo-7H-pyrido[2,3-d][3]benzazepin-7-yl]amino]-1-methyl-2-oxo-ethyl]butanamide hydrate in Part B of an ongoing clinical trial are presented in Table 3. Choi Response Criteria, were recorded for a limited number of patients and are not reported in Table 3, Choi et al, J Clin Oncol. 2007; 25:1753-1759.

leiomyosarcoma tumor [2] = assay: Clinical evaluation: leiomyosarcoma patients, cycle 1, CT scan and DCE-US (Table 2); assay type: in vivo, human
Source text: A study of 4,4,4-Trifluoro-N-[(1S)-2-[[(7S)-5-(2-hydroxyethyl)-6-oxo-7H-pyrido[2,3-d][3]benzazepin-7-yl]amino]-1-methyl-2-oxo-ethyl]butanamide hydrate in patients with advanced or metastatic cancer.
as §1, §2, §3, §4
Data on 3 patients having leiomyosarcoma administered 4,4,4-trifluoro-N-[(1S)-2-[[(7S)-5-(2-hydroxyethyl)-6-oxo-7H-pyrido[2,3-d][3]benzazepin-7-yl]amino]-1-methyl-2-oxo-ethyl]butanamide hydrate in cycle 1 of an ongoing clinical trial are presented in Table 2. Patient 1 was previously treated for leiomyosarcoma with surgery, radiation therapy and 5 prior regimens of systemic therapeutic or targeted therapies. Patient 2 was previously treated for leiomyosarcoma with surgery, radiation therapy, brachytherapy and 3 prior regimens of systemic therapeutic or targeted therapies. Patient 3 was previously treated for leiomyosarcoma with surgery and 3 prior regimens of systemic therapeutic or targeted therapies.

[3] = Atropisomer equilibrium in solution by 1H NMR and LC-MS; assay type: physicochemical; settings: ambient temperature, after 24 hours
Description: In aqueous solutions, 8-9% of atropisomer 2 (minor atropisomer) is detected by ^1H NMR and LC-MS in equilibrium with atropisomer 1 (major atropisomer) at ambient temperature after 24 hours. In organic solvents, at ambient temperature after 24 hours, approximately 1-2% of atropisomer 2 is detected by ^1H NMR and LC-MS in equilibrium with atropisomer 1. Although detectable by ^1H NMR and LC-MS analysis, atropisomer 2 is not isolable.

[4] = first assigned dose 50 mg, individual LMS patients 8-22, Hydrate
[5] = first assigned dose 75 mg, individual LMS patients 4-7, Hydrate
[6] = Patient 1, initial oral dose 100 mg T.I.W., cycle 1

atropisomer 2 (minor atropisomer) detected in equilibrium with atropisomer 1 ([3]; aqueous solutions) | atropisomer 2 detected in equilibrium with atropisomer 1 ([3]; organic solvents) | Compound | Best Change in Tumor Size (%) (leiomyosarcoma tumor [1]; [4]) | PET/CT Scan (change in SUVmax %) (leiomyosarcoma tumor [1]; [4]) | Best Change in Tumor Size (%) (leiomyosarcoma tumor [1]; [5]) | Best RECIST Response (leiomyosarcoma tumor [1]; [5]) | PET/CT Scan (change in SUVmax %) (leiomyosarcoma tumor [1]; [5]) | Clinical effect in leiomyosarcoma tumor patients (PET/CT SUVMAX data) (leiomyosarcoma tumor [1]; summary of Table 3 data) | Overall Response DCE-US (leiomyosarcoma tumor [2]; [6]) | Target Response (leiomyosarcoma tumor [2]; [6]) | Additional CT scan imaging after 1 cycle (leiomyosarcoma tumor [2]; after 1 cycle (28 days), patients 1-3) | Necrosis of leiomyosarcoma tumor (CT scan of the liver, confirmed by DCE-US) (leiomyosarcoma tumor [2]; patients 1 and 2, first week of treatment)
– | – | C[C@H](NC(=O)CCC(F)(F)F)C(=O)N[C@@H]1C(=O)N(CCO)c2ncccc2-c2ccccc21 [4,4,4-Trifluoro-N-[(1S)-2-[[(7S)-5-(2-hydroxyethyl)-6-oxo-7H-pyrido[2,3-d][3]benzazepin-7-yl]amino]-1-methyl-2-oxo-ethyl]butanamide Hydrate] | 13% and 60% and 37% and 19% and 20% and −13% and 33% and 24% and 23% and 50% | −7% and 37% and −5% and −30% and 0% and −11% and 16% | 13% and 23% and 2% | Unconfirmed PR | −4% and 58% and 10% and 32% | beneficial clinical effect | Confirmed | 90% necrosis | confirmed necrosis in all three patients | significant necrosis
8-9% | 1-2% | C[C@H](NC(=O)CCC(F)(F)F)C(=O)N[C@@H]1C(=O)N(CCO)c2ncccc2-c2ccccc21 [Compound 1, 4,4,4-trifluoro-N-[(1S)-2-[[(7S)-5-(2-hydroxyethyl)-6-oxo-7H-pyrido[2,3-d][3]benzazepin-7-yl]amino]-1-methyl-2-oxo-ethyl]butanamide] | – | – | – | – | – | – | – | – | – | –
